From ChEMBL document CHEMBL3352542, “Synthesis, biological evaluation and molecular modeling study of 2-(1,3,4-thiadiazolyl-thio and 4-methyl-thiazolyl-thio)-quinazolin-4-ones as a new class of DHFR inhibitors” (Bioorg Med Chem Lett, 2014)
The source made the active and inactive calls. The calls are words filed in the database; no cut-off is given here.

Experiments:
[1] = biological target: T1, Dihydrofolate reductase (Bos taurus, UniProt P00376); assay: Inhibition of bovine liver DHFR
T1 sequence (P00376 whole entry): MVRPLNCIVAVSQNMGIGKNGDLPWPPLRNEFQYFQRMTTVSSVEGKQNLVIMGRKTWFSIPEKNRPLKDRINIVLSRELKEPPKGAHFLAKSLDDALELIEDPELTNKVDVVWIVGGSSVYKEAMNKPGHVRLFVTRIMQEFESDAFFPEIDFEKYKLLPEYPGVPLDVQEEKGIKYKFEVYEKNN

[2] = test system: Staphylococcus aureus; assay: Antimicrobial activity against Staphylococcus aureus assessed as inhibition zone at 200 ug/disk after 24 hrs by disc-diffusion method; assay type: functional; settings: read-out: IZ
[3] = test system: Bacillus subtilis; assay: Antimicrobial activity against Bacillus subtilis assessed as inhibition zone at 200 ug/disk after 24 hrs by disc-diffusion method; assay type: functional; settings: read-out: IZ
[4] = test system: Escherichia coli; assay: Antimicrobial activity against Escherichia coli assessed as inhibition zone at 200 ug/disk after 24 hrs by disc-diffusion method; assay type: functional; settings: read-out: IZ
[5] = test system: Pseudomonas aeruginosa; assay: Antimicrobial activity against Pseudomonas aeruginosa assessed as inhibition zone at 200 ug/disk after 24 hrs by disc-diffusion method; assay type: functional; settings: read-out: IZ
[6] = test system: Candida albicans; assay: Antimicrobial activity against Candida albicans assessed as inhibition zone at 200 ug/disk after 24 hrs by disc-diffusion method; assay type: functional; settings: read-out: IZ
[7] = test system: CCRF-CEM; assay: Growth inhibition of human CCRF-CEM cells at 10 uM after 48 hrs; assay type: functional
[8] = test system: HL-60(TB); assay: Growth inhibition of human HL-60(TB) cells at 10 uM after 48 hrs; assay type: functional
[9] = test system: K562; assay: Growth inhibition of human K562 cells at 10 uM after 48 hrs; assay type: functional
[10] = test system: MOLT-4; assay: Growth inhibition of human MOLT4 cells at 10 uM after 48 hrs; assay type: functional
[11] = test system: RPMI-8226; assay: Growth inhibition of human RPMI8226 cells at 10 uM after 48 hrs; assay type: functional
[12] = test system: SR; assay: Growth inhibition of human SR cells at 10 uM after 48 hrs; assay type: functional
[13] = test system: A549; assay: Growth inhibition of human A549 cells at 10 uM after 48 hrs; assay type: functional
[14] = test system: HOP-92; assay: Growth inhibition of human HOP92 cells at 10 uM after 48 hrs; assay type: functional
[15] = test system: NCI-H226; assay: Growth inhibition of human NCI-H226 cells at 10 uM after 48 hrs; assay type: functional
[16] = test system: NCI-H23; assay: Growth inhibition of human NCI-H23 cells at 10 uM after 48 hrs; assay type: functional
[17] = test system: NCI-H460; assay: Growth inhibition of human NCI-H460 cells at 10 uM after 48 hrs; assay type: functional
[18] = test system: NCI-H522; assay: Growth inhibition of human NCI-H522 cells at 10 uM after 48 hrs; assay type: functional
[19] = test system: COLO 205; assay: Growth inhibition of human COLO205 cells at 10 uM after 48 hrs; assay type: functional
[20] = test system: HCC 2998; assay: Growth inhibition of human HCC2998 cells at 10 uM after 48 hrs; assay type: functional
[21] = test system: HCT-116; assay: Growth inhibition of human HCT116 cells at 10 uM after 48 hrs; assay type: functional
[22] = test system: HCT-15; assay: Growth inhibition of human HCT15 cells at 10 uM after 48 hrs; assay type: functional
[23] = test system: HT-29; assay: Growth inhibition of human HT-29 cells at 10 uM after 48 hrs; assay type: functional
[24] = test system: KM12; assay: Growth inhibition of human KM12 cells at 10 uM after 48 hrs; assay type: functional
[25] = test system: SW-620; assay: Growth inhibition of human SW620 cells at 10 uM after 48 hrs; assay type: functional
[26] = test system: SF-268; assay: Growth inhibition of human SF268 cells at 10 uM after 48 hrs; assay type: functional
[27] = test system: SF-295; assay: Growth inhibition of human SF295 cells at 10 uM after 48 hrs; assay type: functional
[28] = test system: SF-539; assay: Growth inhibition of human SF539 cells at 10 uM after 48 hrs; assay type: functional
[29] = test system: SNB-19; assay: Growth inhibition of human SNB19 cells at 10 uM after 48 hrs; assay type: functional
[30] = test system: SNB-75; assay: Growth inhibition of human SNB75 cells at 10 uM after 48 hrs; assay type: functional
[31] = test system: U-251; assay: Growth inhibition of human U251 cells at 10 uM after 48 hrs; assay type: functional
[32] = test system: LOX IMVI; assay: Growth inhibition of human LOXIMVI cells at 10 uM after 48 hrs; assay type: functional
[33] = test system: Malme-3M; assay: Growth inhibition of human MALME-3M cells at 10 uM after 48 hrs; assay type: functional
[34] = test system: M14; assay: Growth inhibition of human M14 cells at 10 uM after 48 hrs; assay type: functional
[35] = test system: MDA-MB-435; assay: Growth inhibition of human MDA-MB-435 cells at 10 uM after 48 hrs; assay type: functional
[36] = test system: SK-MEL-5; assay: Growth inhibition of human SK-MEL-5 cells at 10 uM after 48 hrs; assay type: functional
[37] = test system: UACC-257; assay: Growth inhibition of human UACC257 cells at 10 uM after 48 hrs; assay type: functional
[38] = test system: UACC-62; assay: Growth inhibition of human UACC62 cells at 10 uM after 48 hrs; assay type: functional
[39] = test system: OVCAR-3; assay: Growth inhibition of human OVCAR3 cells at 10 uM after 48 hrs; assay type: functional
[40] = test system: OVCAR-4; assay: Growth inhibition of human OVCAR4 cells at 10 uM after 48 hrs; assay type: functional
[41] = test system: OVCAR-5; assay: Growth inhibition of human OVCAR5 cells at 10 uM after 48 hrs; assay type: functional
[42] = test system: OVCAR-8; assay: Growth inhibition of human OVCAR8 cells at 10 uM after 48 hrs; assay type: functional
[43] = test system: NCI/ADR-RES; assay: Growth inhibition of human NCI-ADR-RES cells at 10 uM after 48 hrs; assay type: functional
[44] = test system: 786-0; assay: Growth inhibition of human 786-0 cells at 10 uM after 48 hrs; assay type: functional
[45] = test system: A498; assay: Growth inhibition of human A498 cells at 10 uM after 48 hrs; assay type: functional
[46] = test system: ACHN; assay: Growth inhibition of human ACHN cells at 10 uM after 48 hrs; assay type: functional
[47] = test system: CAKI-1; assay: Growth inhibition of human CAKI-1 cells at 10 uM after 48 hrs; assay type: functional
[48] = test system: RXF 393; assay: Growth inhibition of human RXF393 cells at 10 uM after 48 hrs; assay type: functional
[49] = test system: SN12C; assay: Growth inhibition of human SN12C cells at 10 uM after 48 hrs; assay type: functional
[50] = test system: TK-10; assay: Growth inhibition of human TK10 cells at 10 uM after 48 hrs; assay type: functional
[51] = test system: UO-31; assay: Growth inhibition of human UO31 cells at 10 uM after 48 hrs; assay type: functional
[52] = test system: PC-3; assay: Growth inhibition of human PC3 cells at 10 uM after 48 hrs; assay type: functional
[53] = test system: MCF7; assay: Growth inhibition of human MCF7 cells at 10 uM after 48 hrs; assay type: functional
[54] = test system: MDA-MB-231; assay: Growth inhibition of human MDA-MB-231 cells at 10 uM after 48 hrs; assay type: functional
[55] = test system: Hs-578T; assay: Growth inhibition of human Hs 578T cells at 10 uM after 48 hrs; assay type: functional
[56] = test system: BT-549; assay: Growth inhibition of human BT549 cells at 10 uM after 48 hrs; assay type: functional
[57] = test system: T47D; assay: Growth inhibition of human T47D cells at 10 uM after 48 hrs; assay type: functional
[58] = test system: MDA-MB-468; assay: Growth inhibition of human MDA-MB-468 cells at 10 uM after 48 hrs; assay type: functional
[59] = test system: Staphylococcus aureus; assay: Antimicrobial activity against Staphylococcus aureus assessed as inhibition of visible growth after 24 hrs by disc-diffusion method; assay type: functional, organism-based
[60] = test system: Bacillus subtilis; assay: Antimicrobial activity against Bacillus subtilis assessed as inhibition of visible growth after 24 hrs by disc-diffusion method; assay type: functional, organism-based

## Cc1nc(N)sc1Sc1nc2ccc(Cl)cc2c(=O)n1-c1ccc(Cl)cc1
[1]
  IC50: 8 µM
[2]
  zone of inhibition at 200 µg/disc: 8 mm
[3]
  zone of inhibition at 200 µg/disc: 8 mm
[4]
  zone of inhibition at 200 µg/disc: 8 mm
[5]
  zone of inhibition at 200 µg/disc: 8 mm
[6]
  zone of inhibition at 200 µg/disc: 8 mm
[7]
  growth inhibition (GI): inactive
[8]
  growth inhibition (GI): inactive
[9]
  growth inhibition (GI): inactive
[10]
  growth inhibition (GI): inactive
[11]
  growth inhibition (GI): inactive
[12]
  growth inhibition (GI): inactive
[13]
  growth inhibition (GI): inactive
[14]
  growth inhibition (GI): inactive
[15]
  growth inhibition (GI): inactive
[16]
  growth inhibition (GI): inactive
[17]
  growth inhibition (GI): inactive
[18]
  growth inhibition (GI): inactive
[19]
  growth inhibition (GI): inactive
[20]
  growth inhibition (GI): inactive
[21]
  growth inhibition (GI): inactive
[22]
  growth inhibition (GI): inactive
[23]
  growth inhibition (GI): inactive
[24]
  growth inhibition (GI): inactive
[25]
  growth inhibition (GI): inactive
[26]
  growth inhibition (GI): inactive
[27]
  growth inhibition (GI): inactive
[28]
  growth inhibition (GI): inactive
[29]
  growth inhibition (GI): inactive
[30]
  growth inhibition (GI): inactive
[31]
  growth inhibition (GI): inactive
[32]
  growth inhibition (GI): inactive
[33]
  growth inhibition (GI): inactive
[34]
  growth inhibition (GI): inactive
[35]
  growth inhibition (GI): inactive
[36]
  growth inhibition (GI): inactive
[37]
  growth inhibition (GI): inactive
[38]
  growth inhibition (GI): inactive
[39]
  growth inhibition (GI): inactive
[40]
  growth inhibition (GI): inactive
[41]
  growth inhibition (GI): inactive
[42]
  growth inhibition (GI): inactive
[43]
  growth inhibition (GI): inactive
[44]
  growth inhibition (GI): inactive
[45]
  growth inhibition (GI): inactive
[46]
  growth inhibition (GI): inactive
[47]
  growth inhibition (GI): inactive
[48]
  growth inhibition (GI): inactive
[49]
  growth inhibition (GI): inactive
[50]
  growth inhibition (GI): inactive
[51]
  growth inhibition (GI): inactive
[52]
  growth inhibition (GI): inactive
[53]
  growth inhibition (GI): inactive
[54]
  growth inhibition (GI): inactive
[55]
  growth inhibition (GI): inactive
[56]
  growth inhibition (GI): inactive
[57]
  growth inhibition (GI): inactive
[58]
  growth inhibition (GI): inactive

## Cc1ccc(-n2c(Sc3sc(N)nc3C)nc3ccc(Cl)cc3c2=O)cc1
[1]
  IC50: 5 µM
[2]
  zone of inhibition at 200 µg/disc: 18 mm
[3]
  zone of inhibition at 200 µg/disc: 16 mm
[4]
  zone of inhibition at 200 µg/disc: 8 mm
[5]
  zone of inhibition at 200 µg/disc: 8 mm
[6]
  zone of inhibition at 200 µg/disc: 8 mm
[59]
  Activity: Active
[60]
  Activity: Active
[7]
  growth inhibition (GI): inactive
[8]
  growth inhibition (GI): inactive
[9]
  growth inhibition (GI): inactive
[10]
  growth inhibition (GI): inactive
[11]
  growth inhibition (GI): inactive
[12]
  growth inhibition (GI): inactive
[13]
  growth inhibition (GI): inactive
[14]
  growth inhibition (GI): inactive
[15]
  growth inhibition (GI): inactive
[16]
  growth inhibition (GI): inactive
[17]
  growth inhibition (GI): inactive
[18]
  growth inhibition (GI): inactive
[19]
  growth inhibition (GI): inactive
[20]
  growth inhibition (GI): inactive
[21]
  growth inhibition (GI): inactive
[22]
  growth inhibition (GI): inactive
[23]
  growth inhibition (GI): inactive
[24]
  growth inhibition (GI): inactive
[25]
  growth inhibition (GI): inactive
[26]
  growth inhibition (GI): inactive
[27]
  growth inhibition (GI): inactive
[28]
  growth inhibition (GI): inactive
[29]
  growth inhibition (GI): inactive
[30]
  growth inhibition (GI): inactive
[31]
  growth inhibition (GI): inactive
[32]
  growth inhibition (GI): inactive
[33]
  growth inhibition (GI): inactive
[34]
  growth inhibition (GI): inactive
[35]
  growth inhibition (GI): inactive
[36]
  growth inhibition (GI): inactive
[37]
  growth inhibition (GI): inactive
[38]
  growth inhibition (GI): inactive
[39]
  growth inhibition (GI): inactive
[40]
  growth inhibition (GI): inactive
[41]
  growth inhibition (GI): inactive
[42]
  growth inhibition (GI): inactive
[43]
  growth inhibition (GI): inactive
[44]
  growth inhibition (GI): inactive
[45]
  growth inhibition (GI): inactive
[46]
  growth inhibition (GI): inactive
[47]
  growth inhibition (GI): inactive
[48]
  growth inhibition (GI): inactive
[49]
  growth inhibition (GI): inactive
[50]
  growth inhibition (GI): inactive
[51]
  growth inhibition (GI): inactive
[52]
  growth inhibition (GI): inactive
[53]
  growth inhibition (GI): inactive
[54]
  growth inhibition (GI): inactive
[55]
  growth inhibition (GI): inactive
[56]
  growth inhibition (GI): inactive
[57]
  growth inhibition (GI): inactive
[58]
  growth inhibition (GI): inactive
